In patent US9096646B2, “CXCR4 receptor compounds” (priority 2008, dated 2015):
Several values for one entry are separate records, joined by “and”; a condition that tells them apart may be missing. Equal values may be shown once. Read-outs that look alike come from different tables or passages of the source. Square brackets hold non-standard residues; d marks the D form. Ends that are not written are not given here. Peptide text beside a SMILES is read from it. * marks the point of attachment. ξ: configuration not given here. Biotin = O=C1N[C@H]2[C@H](CS[C@H]2CCCCC(=O)*)N1; ξGly(nC16H33) = CCCCCCCCCCCCCCCCC(N)C(=O)O; Palmitoyl = CCCCCCCCCCCCCCCC(=O)*; NHhexadecyl = CCCCCCCCCCCCCCCCN*; Myristoyl = CCCCCCCCCCCCCC(=O)*

Target: CXCR4 (Homo sapiens, UniProt P61073)
Sequence (P61073 whole entry): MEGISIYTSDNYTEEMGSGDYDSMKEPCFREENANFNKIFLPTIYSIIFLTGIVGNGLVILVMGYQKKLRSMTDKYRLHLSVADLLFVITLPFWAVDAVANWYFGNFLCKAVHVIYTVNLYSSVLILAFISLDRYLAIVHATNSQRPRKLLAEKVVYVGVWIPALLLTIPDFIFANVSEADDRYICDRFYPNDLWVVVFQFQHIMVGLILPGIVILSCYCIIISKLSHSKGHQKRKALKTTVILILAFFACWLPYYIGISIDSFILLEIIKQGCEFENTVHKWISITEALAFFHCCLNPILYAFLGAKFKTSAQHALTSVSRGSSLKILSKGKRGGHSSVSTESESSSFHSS
Experiment: Chemotaxis assay, effect on SDF1-a (CXCL12) induced migration of CCRF-CEM cells
Format: cell-based
Set-up: a human T-cell ALL line that endogenously expresses CXCR4; endogenous in cells; host or cells: CCRF-CEM (human T-cell ALL line)
Conditions: CEM cells; for activity at 1 µM / activity at 0.01 µM / activity at 0.03 µM / activity at 0.1 µM / activity at 0.3 µM / activity at 3 µM: CCRF-CEM
[1] = Table 18, i1 loop, drug conc 1.0 uM
[2] = Table 18, i1 loop, drug conc 1.0 uM, read-out: AUC (% of)
[3] = Table 18, i1 loop, drug conc 1.0 uM, read-out: Max (% of)
[4] = Table 20, i3 loop, conc 1.0 uM, read-out: AUC (% of vehicle)
[5] = Table 20, i3 loop, conc 1.0 uM, read-out: Max (% of vehicle)
[6] = Table 20, i3 loop, conc 1.0 uM, peak test compound/peak control

53 (MGYQKKLRSMTDKYRLHL; not fully specified) [Compound 53]
AUC (% of) [1]: 60.98 % of and 91.1 % of
Max (% of) [1]: 68.45 % of and 89.56 % of

89: CXCR4 i3 loop compound (KLSHSKGHQKRKALKTTVIL) [Compound 89]
AUC (% of vehicle) (Table 20, i3 loop, conc 1.0 uM): 37.55 % of vehicle
Max (% of vehicle) (Table 20, i3 loop, conc 1.0 uM): 59.71 % of vehicle

96: CXCR4 i3 loop compound (SHSKGHQKRKALK; also: lipid Pal, place not given here) [Compound 96]
AUC (% of vehicle) (Table 20, i3 loop, conc 1.0 uM): 34.22 % of vehicle
Max (% of vehicle) (Table 20, i3 loop, conc 1.0 uM): 63.12 % of vehicle

101: CXCR4 i3 loop compound (SKLSHSKGHQKRKALK) [Compound 101]
AUC (% of vehicle) (Table 20, i3 loop, conc 1.0 uM): 75.55 % of vehicle
Max (% of vehicle) (Table 20, i3 loop, conc 1.0 uM): 74.92 % of vehicle

102: CXCR4 i3 loop compound (IIISKLSHSKGHQKRKALKT) [Compound 102]
AUC (% of vehicle) (Table 20, i3 loop, conc 1.0 uM): 0 % of vehicle
Max (% of vehicle) (Table 20, i3 loop, conc 1.0 uM): 0.24 % of vehicle

103: CXCR4 i3 loop compound (IIISKLSHSKGHQKRKALKT) [Compound 103]
AUC (% of vehicle) (Table 20, i3 loop, conc 1.0 uM): 26.32 % of vehicle
Max (% of vehicle) (Table 20, i3 loop, conc 1.0 uM): 24.45 % of vehicle

104: CXCR4 i3 loop compound (IIISKLSHSKGHQKRKALKT) [Compound 104]
AUC (% of vehicle) (Table 20, i3 loop, conc 1.0 uM): 36.4 % of vehicle
Max (% of vehicle) (Table 20, i3 loop, conc 1.0 uM): 56.39 % of vehicle

108: CXCR4 i4 domain compound (GAKFKTSAQHALTSVSRGSSLKILSKGKRG) [Compound 108]
AUC (% of vehicle) (Table 21, i4 loop, conc 1.0 uM): 89.47 % of Vehicle
Max (% of vehicle) (Table 21, i4 loop, conc 1.0 uM): 83.94 % of Vehicle
Peak Test Comp. (Table 21, i4 loop, conc 1.0 uM): 25 nM

109: CXCR4 i4 domain compound (GAKFKTSAQHALTSVSRGSSLKILSKGKRGGHSSVST) [Compound 109]
AUC (% of vehicle) (Table 21, i4 loop, conc 1.0 uM): 49.31 % of Vehicle
Max (% of vehicle) (Table 21, i4 loop, conc 1.0 uM): 49.84 % of Vehicle
Peak Test Comp. (Table 21, i4 loop, conc 1.0 uM): 0.2 nM

110: CXCR4 i4 domain compound (GAKFKTSAQHALTSVSRGSSLKILSKGKRGGHSCFH) [Compound 110]
AUC (% of vehicle) (Table 21, i4 loop, conc 1.0 uM): 40.98 % of Vehicle
Max (% of vehicle) (Table 21, i4 loop, conc 1.0 uM): 42.08 % of Vehicle

114: CXCR4 i4 domain compound (GAKFKTSAQHALTSVSRGSSLKILSK) [Compound 114]
AUC (% of vehicle) (Table 21, i4 loop, conc 1.0 uM): 34.22 % of Vehicle
Max (% of vehicle) (Table 21, i4 loop, conc 1.0 uM): 63.12 % of Vehicle

115: CXCR4 i4 domain compound (GAKFKTSAQHALTSVSRGSSLK) [Compound 115]
AUC (% of vehicle) (Table 21, i4 loop, conc 1.0 uM): 77.47 % of Vehicle
Max (% of vehicle) (Table 21, i4 loop, conc 1.0 uM): 92.11 % of Vehicle

116: CXCR4 i4 domain compound (GAKFKTSAQHALTSVR) [Compound 116]
AUC (% of vehicle) (Table 21, i4 loop, conc 1.0 uM): 65.28 % of Vehicle
Max (% of vehicle) (Table 21, i4 loop, conc 1.0 uM): 80.48 % of Vehicle

CCCCCCCCCCCCCCCCC(NC(=O)CCCC[C@@H]1SC[C@@H]2NC(=O)N[C@@H]21)C(=O)N[C@@H](CCSC)C(=O)NCC(=O)N[C@@H](Cc1ccc(O)cc1)C(=O)N[C@@H](CCC(N)=O)C(=O)N[C@@H](CCCCN)C(=O)N[C@@H](CCCCN)C(=O)N[C@@H](CC(C)C)C(=O)N[C@@H](CCCNC(=N)N)C(=O)N[C@@H](CO)C(=O)N[C@@H](CCSC)C(=O)N[C@H](C(=O)N[C@@H](CC(=O)O)C(N)=O)[C@@H](C)O (stereo partly drawn) [Compound 33] (Biotin-[ξGly(nC16H33)]MGYQKKLRSMTD-NH2)
activity at 1 µM [2]: 54.8%
activity at 1 µM [3]: 76.1%

CCCCCCCCCCCCCCCCC(NC(=O)CCCCCCCCCCCCC)C(=O)N[C@@H](CCSC)C(=O)NCC(=O)N[C@@H](Cc1ccc(O)cc1)C(=O)N[C@@H](CCC(N)=O)C(=O)N[C@@H](CCCCN)C(=O)N[C@@H](CCCCN)C(=O)N[C@@H](CC(C)C)C(=O)N[C@@H](CCCNC(=N)N)C(=O)N[C@@H](CO)C(=O)N[C@@H](CCSC)C(=O)N[C@H](C(=O)N[C@@H](CC(=O)O)C(=O)N[C@@H](CCCCN)C(=O)N[C@@H](Cc1ccc(O)cc1)C(=O)N[C@@H](CCCNC(=N)N)C(=O)N[C@H](C(N)=O)[C@@H](C)CC)[C@@H](C)O (stereo partly drawn) [Compound 48] (Myristoyl-[ξGly(nC16H33)]MGYQKKLRSMTDKYRI-NH2)
activity at 1 µM [2]: 53%
activity at 1 µM [3]: 53.5%

CCCCCCCCCCCCCCCC(=O)N[C@@H](CCSC)C(=O)NCC(=O)N[C@@H](Cc1ccc(O)cc1)C(=O)N[C@@H](CCC(N)=O)C(=O)N[C@@H](CCCCN)C(=O)N[C@@H](CCCCN)C(=O)N[C@@H](CC(C)C)C(=O)N[C@@H](CCCNC(=N)N)C(=O)N[C@@H](CO)C(=O)N[C@@H](CCSC)C(=O)N[C@H](C(=O)N[C@@H](CC(=O)O)C(=O)N[C@@H](CCCCN)C(=O)N[C@@H](Cc1ccc(O)cc1)C(=O)N[C@@H](CCCNC(=N)N)C(=O)N[C@H](C(N)=O)[C@@H](C)CC)[C@@H](C)O [Compound 49] (Palmitoyl-MGYQKKLRSMTDKYRI-NH2)
activity at 1 µM [2]: 50.9%
activity at 1 µM [3]: 62.7%

CCCCCCCCCCCCCCCCNC(=O)[C@H](CCCCN)NC(=O)[C@H](CC(=O)O)NC(=O)[C@@H](NC(=O)[C@H](CCSC)NC(=O)[C@H](CO)NC(=O)[C@H](CCCNC(=N)N)NC(=O)[C@H](CC(C)C)NC(=O)[C@H](CCCCN)NC(=O)[C@H](CCCCN)NC(=O)[C@H](CCC(N)=O)NC(=O)[C@H](Cc1ccc(O)cc1)NC(=O)CNC(=O)[C@H](CCSC)NC(C)=O)[C@@H](C)O [Compound 59] (Ac-MGYQKKLRSMTDK-NHhexadecyl)
activity at 1 µM [2]: 51.6%

CCCCCCCCCCCCCCCC(=O)N[C@@H](CO)C(=O)NCC(=O)N[C@@H](Cc1ccc(O)cc1)C(=O)N[C@@H](CCC(N)=O)C(=O)N[C@@H](CCCCN)C(=O)N[C@@H](CCCCN)C(=O)N[C@@H](CC(C)C)C(=O)N[C@@H](CCCNC(=N)N)C(=O)N[C@@H](CO)C(=O)N[C@@H](CO)C(=O)N[C@H](C(=O)N[C@@H](CC(=O)O)C(N)=O)[C@@H](C)O [Compound 69] (Palmitoyl-SGYQKKLRSSTD-NH2)
activity at 1 µM [2]: 100%
activity at 1 µM [3]: 93.1%
Peak Test Comp. [1]: 25 nM
Peak Ratio (Table 18, i1 loop, drug conc 1.0 uM, peak test comp./peak control): 1

CCCCCCCCCCCCCCCCC(NC(=O)CCCC[C@@H]1SC[C@@H]2NC(=O)N[C@@H]21)C(=O)N[C@@H](Cc1cnc[nH]1)C(=O)N[C@@H](CO)C(=O)N[C@@H](CCCCN)C(=O)NCC(=O)N[C@@H](Cc1cnc[nH]1)C(=O)N[C@@H](CCC(N)=O)C(=O)N[C@@H](CCCCN)C(=O)N[C@@H](CCCNC(=N)N)C(=O)N[C@@H](CCCCN)C(=O)N[C@@H](C)C(=O)N[C@@H](CC(C)C)C(=O)N[C@@H](CCCCN)C(N)=O (stereo partly drawn) [Compound 87] (Biotin-[ξGly(nC16H33)]HSKGHQKRKALK-NH2)
activity at 1 µM [4]: 52.6%
activity at 1 µM [5]: 76.1%
Peak Test Compound (Table 20, i3 loop, conc 1.0 uM): 0.2 nM
Peak Ratio [6]: 0.2

CCCCCCCCCCCCCCCC(=O)N[C@@H](CCCCN)C(=O)N[C@@H](CC(C)C)C(=O)N[C@@H](CO)C(=O)N[C@@H](Cc1cnc[nH]1)C(=O)N[C@@H](CO)C(=O)N[C@@H](CCCCN)C(=O)NCC(=O)N[C@@H](Cc1cnc[nH]1)C(=O)N[C@@H](CCC(N)=O)C(=O)N[C@@H](CCCCN)C(=O)N[C@@H](CCCNC(=N)N)C(=O)N[C@@H](CCCCN)C(=O)N[C@@H](C)C(=O)N[C@@H](CC(C)C)C(=O)N[C@@H](CCCCN)C(N)=O [Compound 92] (Palmitoyl-KLSHSKGHQKRKALK-NH2)
activity at 0.01 µM (Table 20, i3 loop, conc 0.01 uM, read-out: AUC (% of vehicle)): 158%
activity at 0.01 µM (Table 20, i3 loop, conc 0.01 uM, read-out: Max (% of vehicle)): 156%
activity at 0.03 µM (Table 20, i3 loop, conc 0.03 uM, read-out: AUC (% of vehicle)): 200%
activity at 0.03 µM (Table 20, i3 loop, conc 0.03 uM, read-out: Max (% of vehicle)): 198%
activity at 0.1 µM (Table 20, i3 loop, conc 0.1 uM, read-out: AUC (% of vehicle)): 174%
activity at 0.1 µM (Table 20, i3 loop, conc 0.1 uM, read-out: Max (% of vehicle)): 169%
activity at 0.3 µM (Table 20, i3 loop, conc 0.3 uM, read-out: AUC (% of vehicle)): 180%
activity at 0.3 µM (Table 20, i3 loop, conc 0.3 uM, read-out: Max (% of vehicle)): 165%
activity at 3 µM (Table 20, i3 loop, conc 3.0 uM, read-out: AUC (% of vehicle)): 184%
activity at 3 µM (Table 20, i3 loop, conc 3.0 uM, read-out: Max (% of vehicle)): 176%
Peak Test Compound (Table 20, i3 loop, conc 0.01 uM): 0.16 nM
Peak Ratio (Table 20, i3 loop, conc 0.01 uM, peak test compound/peak control): 0.2
Peak Test Compound (Table 20, i3 loop, conc 0.03 uM): 0.16 nM
Peak Ratio (Table 20, i3 loop, conc 0.03 uM, peak test compound/peak control): 0.2
Peak Test Compound (Table 20, i3 loop, conc 0.1 uM): 0.16 nM
Peak Ratio (Table 20, i3 loop, conc 0.1 uM, peak test compound/peak control): 0.2
Peak Test Compound (Table 20, i3 loop, conc 0.3 uM): 0.16 nM
Peak Ratio (Table 20, i3 loop, conc 0.3 uM, peak test compound/peak control): 0.2
Peak Test Compound (Table 20, i3 loop, conc 1.0 uM): 0.2 nM and 0.16 nM
Peak Ratio [6]: 0.2
Peak Test Compound (Table 20, i3 loop, conc 3.0 uM): 0.8 nM
Peak Ratio (Table 20, i3 loop, conc 3.0 uM, peak test compound/peak control): 1

CCCCCCCCCCCCCCCC(=O)N[C@@H](CCCCN)C(=O)N[C@@H](CC(C)C)C(=O)N[C@@H](CO)C(=O)N[C@@H](Cc1cnc[nH]1)C(=O)N[C@@H](CO)C(=O)N[C@@H](CCCCN)C(=O)NCC(=O)N[C@@H](Cc1cnc[nH]1)C(=O)N[C@@H](CCC(N)=O)C(=O)N[C@@H](CCCCN)C(=O)N[C@@H](CCCNC(=N)N)C(=O)N[C@@H](CCCCN)C(=O)N[C@@H](C)C(=O)N[C@@H](CC(C)C)C(N)=O [Compound 93] (Palmitoyl-KLSHSKGHQKRKAL-NH2)
activity at 1 µM [4]: 15.9%
activity at 1 µM [5]: 54.8%
Peak Test Compound (Table 20, i3 loop, conc 1.0 uM): 0.2 nM
Peak Ratio [6]: 0.2
